# Source: PubChem BioAssay (NCI)
#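 These data come from cells grown in 96-well plates and exposed to compound for 48 hours at five concentrations. TGI marks complete inhibition of growth.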
# How the values were obtained:
# Assay in all cases: DTP human tumour cell line panel, 48 h
# HCT-116 colon = test system: HCT-116 colon
# ACHN renal = test system: ACHN renal
# NCI-H23 lung = test system: NCI-H23 lung
# T-47D breast = test system: T-47D breast
# UACC-257 melanoma = test system: UACC-257 melanoma
# SF-268 CNS = test system: SF-268 CNS
# BT-549 breast = test system: BT-549 breast
# OVCAR-8 ovarian = test system: OVCAR-8 ovarian
# NCI-H460 lung = test system: NCI-H460 lung
# NCI-H226 lung = test system: NCI-H226 lung
# SK-MEL-2 melanoma = test system: SK-MEL-2 melanoma
# KM12 colon = test system: KM12 colon
# EKVX NSCLC = test system: EKVX NSCLC
Compound,TGI (HCT-116 colon),TGI (ACHN renal),TGI (NCI-H23 lung),TGI (T-47D breast),TGI (UACC-257 melanoma),TGI (SF-268 CNS),TGI (BT-549 breast),TGI (OVCAR-8 ovarian),TGI (NCI-H460 lung),TGI (NCI-H226 lung),TGI (SK-MEL-2 melanoma),TGI (KM12 colon),TGI (EKVX NSCLC)
O=C(O)C1(C(O)c2ccccc2)SCCCS1 (stereo unspecified),> 10 µM,> 10 µM,> 10 µM,> 10 µM,> 10 µM,> 10 µM,> 10 µM,> 10 µM,> 10 µM,> 10 µM,> 10 µM,> 10 µM,> 10 µM
CC(NNC(=O)c1ccncc1)c1ccc(Cl)cc1Cl (stereo unspecified),> 100 µM,> 100 µM,> 100 µM,> 100 µM,> 100 µM,> 100 µM,> 100 µM,> 100 µM,> 100 µM,> 100 µM,> 100 µM,> 100 µM,> 100 µM
C#CCOC(=O)C(=[N+]=[N-])C(=O)CC(C)C,> 10 µM,> 10 µM,> 10 µM,> 10 µM,> 10 µM,> 10 µM,> 10 µM,> 10 µM,> 10 µM,> 10 µM,> 10 µM,> 10 µM,> 10 µM
O=C(O)CCC1NC(/C(=C/c2ccccc2O)NC(=O)c2ccccc2)OC1=O (stereo unspecified),> 100 µM,> 100 µM,> 100 µM,> 100 µM,> 100 µM,> 100 µM,> 100 µM,> 100 µM,> 100 µM,> 100 µM,> 100 µM,> 100 µM,> 100 µM
CCCCCCCCCCCCC1N=C(N)N2CCCC2=C1C(=O)OC (stereo unspecified),3.34 µM,19.5 µM,6.17 µM,3.73 µM,3.73 µM,14.8 µM,35 µM,3.37 µM,3.23 µM,48.8 µM,3.64 µM,3.94 µM,35.4 µM
C/C(Nc1ccc(Cl)cc1)=C1/CCOC1=O,> 100 µM,> 100 µM,> 100 µM,> 100 µM,> 100 µM,> 100 µM,> 100 µM,> 100 µM,> 100 µM,> 100 µM,> 100 µM,> 100 µM,> 100 µM
Cc1ccc2nc(C(=O)O)c(=O)[nH]c2c1,> 100 µM,> 100 µM,> 100 µM,> 100 µM,> 100 µM,> 100 µM,> 100 µM,> 100 µM,> 100 µM,> 100 µM,> 100 µM,> 100 µM,> 100 µM
CCC1CN2CCc3c([nH]c4ccccc34)[C@@](C(=O)OC)(c3cc4c(cc3OC)N(C)C3C(O)(C(=O)OC)C(C(=O)OC)C5(CC)C=CCN6CCC43C65)C[C@@H](C2)[C@@H]1C(C)(C)C (stereo partly specified),2.85 µM,> 10 µM,> 6.31 µM,> 10 µM,> 7.97 µM,> 10 µM,> 8.68 µM,> 3.79 µM,2.34 µM,0.902 µM,> 4.02 µM,> 5.72 µM,> 10 µM
Oc1ccc(SCc2cc(O)ccc2O)cc1,26.1 µM,26.8 µM,> 100 µM,30.5 µM,> 50.3 µM,> 62.7 µM,16.5 µM,41.9 µM,> 86.7 µM,35.5 µM,39.2 µM,46.9 µM,41.7 µM
CC(C)=CCc1c2c(c(O)c3c(=O)c4c(oc13)-c1ccc(O)cc1OC4C=C(C)C)C=CC(C)(C)O2 (stereo unspecified),21 µM,24.7 µM,20.3 µM,23 µM,29.4 µM,29.8 µM,28.1 µM,28.8 µM,30.4 µM,40.6 µM,26.1 µM,21.7 µM,30.3 µM
Cc1cc2occ(S(=O)(=O)NC(=O)Nc3ccc(Cl)cc3)c(=O)c2c(=O)o1,> 100 µM,> 100 µM,> 100 µM,> 100 µM,> 100 µM,> 100 µM,> 100 µM,> 100 µM,> 100 µM,> 100 µM,> 100 µM,> 100 µM,> 100 µM
CC(=O)N1c2cc(N=NN(C)C)ccc2NC(=O)CC1C (stereo unspecified),> 100 µM,> 100 µM,> 100 µM,> 100 µM,> 100 µM,> 100 µM,> 100 µM,> 100 µM,> 100 µM,> 100 µM,> 100 µM,> 100 µM,> 100 µM
Cc1ncc(CSC(=N)N)n1Cc1ccccc1,> 100 µM,> 100 µM,> 100 µM,> 100 µM,> 100 µM,> 100 µM,> 100 µM,> 100 µM,> 100 µM,> 100 µM,> 100 µM,> 100 µM,> 100 µM
c1ccc(-c2c(-c3[nH]c4ccccc4c3-c3ccccc3)[nH]c3ccccc23)cc1,13.4 µM,11.6 µM,6.68 µM,8.44 µM,25.1 µM,21.5 µM,15 µM,15.6 µM,8.57 µM,25.6 µM,22.1 µM,11.8 µM,14.1 µM
CCCCCCCCCCCCC1N=C(N)NC2(CCCO2)C1C(=O)OC (stereo unspecified),7.32 µM,25.2 µM,18.2 µM,27.7 µM,19 µM,14.8 µM,18.5 µM,23.3 µM,8.23 µM,36.9 µM,20.9 µM,3.34 µM,36.6 µM
COc1cc2c(cc1OC)C(=O)N(c1ccc(OCCN3CCCC3)cc1)C2=O,> 100 µM,> 100 µM,> 100 µM,> 100 µM,> 100 µM,> 100 µM,> 100 µM,> 100 µM,> 100 µM,> 100 µM,> 100 µM,> 100 µM,> 100 µM
COC(=O)c1ccccc1C1CN=NC12Cc1c(C)ccc(C)c1C2=O (stereo unspecified),> 100 µM,> 100 µM,> 100 µM,> 100 µM,> 100 µM,> 100 µM,> 100 µM,> 100 µM,> 100 µM,> 100 µM,> 100 µM,> 100 µM,> 100 µM
